How the values were obtained:
[1] = test system: human colorectal cancer HCT-116 cells; assay: MTT cytotoxicity assay, HCT-116; assay type: cell-based; conditions: for IC50: Homo sapiens, MTT, 72 h, n = 3, ± SD, read-out: Adhesive Cell Cultures, IC50 HCT-116
Procedure: (§1) All newly synthesized PPA derivatives 1–8 were evaluated for their anti-proliferative activity against human breast cancer MCF-7, human prostate adenocarcinoma PC-3, human colorectal cancer HCT-116, human lung cancer A549, human chronic myelogenous leukemia K562, human acute monocytic leukemia THP-1, human multiple myeloma RPMI8226, human acute T-cell leukemia Jurkat, human multiple myeloma NCI-H929, and human embryonic fibroblasts HEF cell lines by MTT assays. All cells were incubated with different concentrations of PPA derivatives for 72 h, with etoposide and PPA used as reference compounds. The anticancer activity of the tested compounds was described as the concentration of drug inhibiting 50% cell growth IC50 (Table 1 and Table 2).
(§2) ^1H-NMR spectra were acquired on an AVANCE III 400 MHz NMR spectrometer (Bruker, Rheinstetten, Germany) in CDCl3. Optical rotations were acquired on a Polaar 3005 Polarimeter (Optical Activity, Huntingdon, Great Britain) using a 2.5 cm cell with a Na 589 nm filter and the concentration of samples was denoted as c. Mass spectra data were acquired on a TSQ Quantum Access Max Mass spectrometer (Thermo Fisher Scientific, Waltham, MA, USA). High-resolution mass spectra (HRMS) were acquired on a LTQ Orbitrap Velos spectrometer (Thermo Scientific) and on a Bruker MicrOTOF. FTIR spectra were acquired on an IR Affinity-1 spectrometer (Shimadzu, Thermo Scientific). Organic solvents used were dried by standard methods when necessary. Commercially available reagents were used without further purification. All reactions were monitored by TLC with silica gel coated plates (EMD/Merck KGaA, Darmstadt, Germany), with visualization by UV light and by charring with 0.1% ninhydrin in EtOH. Column chromatography was performed using Merck 60 Å 70–230 mesh silica gel. The optical density was determined using a Multiskan FC spectrophotometer (Thermo Scientific) at a wavelength of 540 nm when using the MTT assay.
(§3) MCF-7 (breast cancer), PC-3 (prostate adenocarcinoma), HCT-116 (colorectal cancer cell), A549 (lung cancer), K562 (chronic myelogenous leukemia), THP-1 (acute monocytic leukemia), and RPMI8226 (multiple myeloma), Jurkat (acute T-cell leukemia), HEF (human embryonic fibroblasts) was purchased from the Russian Academy of Sciences Cells Bank (Institute of Cytology of the Russian Academy of Sciences, Saint Petersburg, Russian Federation). Multiple myeloma cell line NCI-H929 was purchased from ATCC (USA). The MCF-7, A549 and HEF (human embryonic fibroblasts) were cultured in DMEM medium. Other cell lines were cultured in RPMI1640 medium, (PanEco, Russia) supplemented with 10% fetal bovine serum (GE Healthcare LifeSciences, São Paulo, Brazil), and gentamicin at a concentration of 40 μg/mL and cultured at 37 °C in a humidified atmosphere containing 5% CO2. All experiments were performed with cells at passages 3 to 7 in the logarithmic phase of growth.
(§4) Cells were seeded into 96-well plates of 5 × 10^3 for adhesive cultures and 20 × 10^3 for suspension cultures per well in 90 μL and 135 μL of culture medium, respectively. The test substances were dissolved in DMSO to a concentration of 1 × 10^−2 M. For subsequent dilution of the substances, a serum-free culture medium was used as the diluent. Final concentration of DMSO in wells was no more than 1%. […] Substances were added to the cells in 3–4 replicates after 24 h for adhesive cultures and immediately for suspension cultures. 10–15 μL of serum-free medium was added to the control wells with non-exposed cells. Cells were cultured for 72 h at 37 °C in an atmosphere of 5% CO2.

[2] = test system: human multiple myeloma NCI-H929 cells; assay: MTT cytotoxicity assay, NCI-H929; assay type: cell-based; conditions: for IC50: Homo sapiens, MTT, 72 h, n = 3, ± SD, read-out: Suspension Cell Cultures, IC50 NCI-Н929
Procedure: as §1, §2, §3, §4

[3] = test system: human multiple myeloma RPMI8226 cells; assay: MTT cytotoxicity assay, RPMI8226; assay type: cell-based; conditions: for IC50: Homo sapiens, RPMI-8226, MTT, 72 h, n = 3, ± SD, read-out: Suspension Cell Cultures, IC50 RPMI8228
Procedure: as §1, §2, §3, §4

[4] = Acute intraperitoneal toxicity study; assay type: in vivo; conditions: male, outbred (printed 'outbreed'), mouse, in vivo, ip, mice, single i.p. injection, 14 days
Procedure: (§5) Six to eight-week-old outbreed male mice were purchased from the Rappolovo Animal Farm of the Russian Academy of Sciences. Animals were group housed in solid bottom polycarbonate cages (3–5 animals/cage) and provided with sterilized pelleted food and pure water ad libitum.
(§6) Thirty mice were randomly assigned to the acute toxicity study. Animals in experimental groups ([…]) received a dose formulation containing compound 6 solution in 5% DMSO at various dosages (8.25, 82.5 and 200 mg/kg) via single i.p. injection. Mice in the control group treated with vehicle (5% DMSO). The location of the i.p. injection was in the lower left abdominal quadrant. […] After treatments, the following parameters and end points were evaluated for 14 days: mortality, clinical signs, body weight, food consumption, locomotion, salivation, diarrhea, and lethargy. The maximum tolerated dose in this study is defined as the highest dose that will be tolerated and not produce major life-threatening toxicity for the study duration. All experimental procedures were performed according to the principles and guidelines for the care and use of laboratory animals. The animals were sacrificed by carbon dioxide asphyxiation and cervical dislocation. All efforts were made to minimize suffering. Post mortem evaluation included gross examination for all animals at terminal necropsy and calculation of organ mass coefficients. No histopathological examinations were performed.

mice [5] = assay: Acute intraperitoneal toxicity study; assay type: in vivo
Procedure: as §5, §6

[6] = test system: human chronic myelogenous leukemia K562 cells; assay: MTT cytotoxicity assay, K562; assay type: cell-based; conditions: for IC50: Homo sapiens, MTT, 72 h, n = 3, ± SD, read-out: Suspension Cell Cultures, IC50 К562
Procedure: as §1, §2, §3, §4

[7] = test system: human acute monocytic leukemia THP-1 cells; assay: MTT cytotoxicity assay, THP-1; assay type: cell-based; conditions: 72 h, n = 3, ± SD, read-out: Suspension Cell Cultures, IC50 THP-1
Procedure: as §1, §2, §3, §4

[8] = test system: human embryonic fibroblasts HEF; assay: MTT cytotoxicity assay, HEF (control cells); assay type: cell-based; conditions: Fibroblast, 72 h, n = 3, ± SD, read-out: Adhesive Cell Cultures, IC50 HEF
Procedure: as §1, §2, §3, §4

[9] = test system: human breast cancer MCF-7 cells; assay: MTT cytotoxicity assay, MCF-7; assay type: cell-based; conditions: MCF7, 72 h, n = 3, ± SD, read-out: Adhesive Cell Cultures, IC50 MCF-7
Procedure: as §1, §2, §3, §4

[10] = test system: human acute T-cell leukemia Jurkat cells; assay: MTT cytotoxicity assay, Jurkat; assay type: cell-based; conditions: for IC50: Homo sapiens, MTT, 72 h, n = 3, ± SD, read-out: Suspension Cell Cultures, IC50 Jurkat
Procedure: as §1, §2, §3, §4

[11] = test system: human lung cancer A549 cells; assay: MTT cytotoxicity assay, A549; assay type: cell-based; conditions: 72 h, n = 3, ± SD, read-out: Adhesive Cell Cultures, IC50 A549
Procedure: as §1, §2, §3, §4

[12] = test system: human prostate adenocarcinoma PC-3 cells; assay: MTT cytotoxicity assay, PC-3; assay type: cell-based; conditions: for IC50: Homo sapiens, MTT, 72 h, n = 3, ± SD, read-out: Adhesive Cell Cultures, IC50 PC-3
Procedure: as §1, §2, §3, §4

mice [13] = test system: mice; set-up: method as in RTECS # KC0190000; conditions: i.p., ref RTECS # KC0190000; cited from earlier work

With `C=C1C2=C(C(=O)N1OC)[C@@H](N1CCCC1)[C@@](C)(O)[C@H](CCCCC)O2` [Compound 6, (2S,3R,4R)-3-Hydroxy-6-methoxy-3-methyl-7-methylene-2-pentyl-4-pyrrolidin-1-yl-3,4,6,7-tetrahydro-pyrano[2,3-c]pyrrol-5(2H)-one] as the molecule, how does the “fold increase in anticancer activity comparative to etoposide” value (from here on “fold increase”) [1] read?
Its value is 47 fold.

And the “fold stronger than the reference compound PPA” value [1]?
Its value is 51 fold.

What about the IC50 [1] of the same molecule?
Its IC50 is 470 ± 10 nM.

What about the “fold increase” value [2] of the same molecule?
Its value is 4 fold.

What about the “fold stronger than the reference compound PPA” value [2] of the same molecule?
Its value is 28 fold.

And the IC50 [2]?
Its IC50 is 230 ± 20 nM.

And the IC50 [3]?
The IC50 was 630 ± 230 nM.

And the “fold increase” value ([3]; RPMI8226)?
The value was 7 fold.

What about the “fold stronger than the reference compound PPA” value ([3]; RPMI8226) of the same molecule?
Its value is 14.5 fold.

And the LD50 at 14 days ([4]; not determined, believed to be more than, read-out: Median lethal dose (LD50))?
Its LD50 at 14 days is > 200 mg/kg.

What about the MTD at 14 days ([4]; read-out: Maximum tolerated dose) of the same molecule?
The MTD at 14 days was ≥ 82.5 mg/kg.

What about the “toxicity in vivo comparative to etoposide” value (mice [5]; mice, i.p.) of the same molecule?
The value was “less toxic”.

And the “effect on mean body weight or mass coefficients (spleen, liver, heart, kidney, lung, thymus, and adrenal)” value (mice [5]; mouse, in vivo, ip)?
Its value is “No effect”.

And the “gross abnormalities in the organs tested” value (mice [5]; mouse, in vivo, ip)?
Its value is “No gross abnormalities”.

What about the “fold increase” value [6] of the same molecule?
The value was 16 fold.

What about the “fold stronger than the reference compound PPA” value [6] of the same molecule?
The value was 37 fold.

And the IC50 [6]?
The IC50 was 540 ± 30 nM.

And the IC50 [7]?
Its IC50 is 2050 ± 210 nM.

And the IC50 [8]?
Its IC50 is 4000 ± 170 nM.

And the IC50 [9]?
The IC50 was 3250 ± 640 nM.

And the “fold increase” value [10]?
Its value is 1.5 fold.

And the “fold stronger than the reference compound PPA” value [10]?
Its value is 17.5 fold.

And the IC50 [10]?
The IC50 was 550 ± 290 nM.

And the IC50 [11]?
Its IC50 is 10100 ± 500 nM.

And the “fold increase” value [12]?
Its value is 13.5 fold.

And the “fold stronger than the reference compound PPA” value [12]?
Its value is 160 fold.

And the IC50 [12]?
The IC50 was 200 ± 70 nM.

Which results are given for `COc1cc([C@@H]2c3cc4c(cc3[C@@H](O[C@@H]3O[C@@H]5CO[C@@H](C)O[C@H]5[C@H](O)[C@H]3O)[C@H]3COC(=O)[C@H]23)OCO4)cc(OC)c1O` [Etoposide, etoposide, reference compound]?
IC50 [1]: 22000 ± 1100 nM; IC50 [2]: 920 ± 30 nM; Intraperitoneal LD50 (mice [13]): 64 mg/kg; IC50 [3]: 4600 ± 280 nM; IC50 [6]: 8470 ± 950 nM; IC50 [7]: 830 ± 210 nM; IC50 [8]: > 100000 nM; IC50 [9]: 9600 ± 270 nM; IC50 [10]: 880 ± 740 nM; IC50 [11]: > 100000 nM; IC50 [12]: 2700 ± 50 nM

Which results are given for `C=C1C2=C(C(=O)N1OC)[C@@H](N1CCC(N3CCCC3)CC1)[C@@](C)(O)[C@H](CCCCC)O2` [Compound 7, (2S,3R,4R)-3-Hydroxy-6-methoxy-3-methyl-7-methylene-2-pentyl-4-(4-pyrrolidin-1-ylpiperidin-1-yl)-3,4,6,7-tetrahydropyrano[2,3-c]pyrrol-5(2H)-one]?
IC50 [1]: 1650 ± 630 nM; IC50 [2]: 2000 ± 260 nM; IC50 [3]: 3350 ± 1480 nM; IC50 [6]: 6030 ± 910 nM; IC50 [7]: 3450 ± 210 nM; IC50 [8]: 22300 ± 330 nM; IC50 [9]: 1800 ± 440 nM; IC50 [10]: 2730 ± 1530 nM; IC50 [11]: 12200 ± 200 nM; IC50 [12]: 3650 ± 640 nM
